In ChEMBL document CHEMBL3886531, “Dihydropyrrolopyrimidine derivatives” (2016) one finds Ki data, which are given here for one compound.

The experiment has as its target PI3-kinase p110-alpha/p85-alpha (Homo sapiens, UniProt P42336). As to the kind of experiment: Biochemical Assay: PI3KA_FL: Genes encoding for full length p110alpha and p85alpha subunits of PI3Kalpha complex were subcloned from existing constructs into pFASTBAC Dual vector (Life Technologies, Carlsbad, Calif.) using standard cloning procedures. Gene encoding p110alpha subunit was subcloned into polyhedrine promoter while gene encoding p85alpha subunit was subcloned into p10 promoter. Additionally, sequence encoding for histidine tag and Tobacco Etch Virus ("TEV") cleavage site preceded p110alpha ORF (Open Reading Frame). The biochemical assays of kinase activity of full-length PI3Kalpha (full-length p110alpha/p85a) or truncated PI3Kalpha (p110alpha/iSH2 p85a) were conducted using a fluorescence polarization format similar to the procedure of Yuan J., et al., (2011) PF-04691502, a Potent and Selective Oral Inhibitor of PI3K and mTOR Kinases with Antitumor Activity, Mol Cancer Ther. 10, 2189-2199. The enzymatic reactions were conducted in 50 uL volumes in 96-well plates. Format: protein-complex assay. On the technique in general: Fluorescence polarisation rises when a labelled molecule tumbles more slowly, as on binding a larger partner.

SMILES strings stand for the structures.

PI3-kinase p110-alpha/p85-alpha, sequence (P27986 whole entry, the tested form may be a part): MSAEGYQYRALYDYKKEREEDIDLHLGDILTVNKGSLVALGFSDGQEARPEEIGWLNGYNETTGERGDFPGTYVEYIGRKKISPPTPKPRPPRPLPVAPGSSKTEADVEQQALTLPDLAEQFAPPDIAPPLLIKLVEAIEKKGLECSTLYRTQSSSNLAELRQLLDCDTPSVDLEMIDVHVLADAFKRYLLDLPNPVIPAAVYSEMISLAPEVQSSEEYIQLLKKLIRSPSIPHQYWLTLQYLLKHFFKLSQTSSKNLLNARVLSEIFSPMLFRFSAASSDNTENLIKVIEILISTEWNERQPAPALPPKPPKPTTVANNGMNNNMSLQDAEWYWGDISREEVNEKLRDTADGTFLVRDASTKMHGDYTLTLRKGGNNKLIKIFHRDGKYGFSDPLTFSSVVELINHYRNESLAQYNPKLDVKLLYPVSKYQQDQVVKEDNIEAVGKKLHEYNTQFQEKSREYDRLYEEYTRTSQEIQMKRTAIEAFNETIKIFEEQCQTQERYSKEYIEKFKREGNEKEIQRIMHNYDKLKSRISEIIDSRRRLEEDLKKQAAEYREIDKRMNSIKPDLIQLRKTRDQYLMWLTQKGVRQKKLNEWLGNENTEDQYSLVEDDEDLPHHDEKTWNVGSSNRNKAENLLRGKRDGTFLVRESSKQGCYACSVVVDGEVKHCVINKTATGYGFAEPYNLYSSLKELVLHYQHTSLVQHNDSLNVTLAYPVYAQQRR
PI3-kinase p110-alpha/p85-alpha, sequence (P42336 whole entry, the tested form may be a part): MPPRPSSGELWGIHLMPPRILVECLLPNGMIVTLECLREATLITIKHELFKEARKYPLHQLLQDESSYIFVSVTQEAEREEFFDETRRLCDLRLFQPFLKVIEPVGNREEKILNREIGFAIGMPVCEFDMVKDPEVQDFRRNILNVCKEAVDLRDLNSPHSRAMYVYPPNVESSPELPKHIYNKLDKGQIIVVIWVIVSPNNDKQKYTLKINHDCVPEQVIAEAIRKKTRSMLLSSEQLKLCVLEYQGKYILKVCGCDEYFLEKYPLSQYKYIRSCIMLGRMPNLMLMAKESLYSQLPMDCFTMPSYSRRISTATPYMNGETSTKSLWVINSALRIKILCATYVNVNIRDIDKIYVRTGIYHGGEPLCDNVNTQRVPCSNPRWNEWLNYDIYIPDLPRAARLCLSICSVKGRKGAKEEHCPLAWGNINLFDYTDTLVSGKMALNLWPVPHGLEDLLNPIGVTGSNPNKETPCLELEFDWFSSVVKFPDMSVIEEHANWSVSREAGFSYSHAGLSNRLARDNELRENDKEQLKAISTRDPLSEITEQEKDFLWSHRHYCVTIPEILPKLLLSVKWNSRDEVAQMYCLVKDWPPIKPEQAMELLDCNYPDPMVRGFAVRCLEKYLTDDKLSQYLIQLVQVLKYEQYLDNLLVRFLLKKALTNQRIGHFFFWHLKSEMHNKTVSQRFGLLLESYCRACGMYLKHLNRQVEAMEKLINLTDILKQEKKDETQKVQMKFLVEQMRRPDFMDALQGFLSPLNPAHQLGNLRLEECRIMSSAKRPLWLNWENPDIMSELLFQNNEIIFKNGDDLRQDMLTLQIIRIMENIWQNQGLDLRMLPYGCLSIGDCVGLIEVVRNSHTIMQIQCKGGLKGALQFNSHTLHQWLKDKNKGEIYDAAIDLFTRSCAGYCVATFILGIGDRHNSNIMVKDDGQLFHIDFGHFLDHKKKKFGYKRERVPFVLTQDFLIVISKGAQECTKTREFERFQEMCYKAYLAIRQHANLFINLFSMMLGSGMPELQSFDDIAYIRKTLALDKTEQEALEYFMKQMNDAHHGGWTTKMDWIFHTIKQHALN

The Ki is a dissociation constant, usually derived from enzyme kinetics or from competition with a known ligand. Read a high Ki as weaker binding. Turning to `CC(=O)N[C@H]1C(C)(C)[C@H](N2CCc3c(-c4cnc(N)nc4)nc(N4CCOCC4)nc32)C1(C)C`, the affinity corresponds to a Ki of 1.14 nM.
